Assay results reported in ChEMBL document CHEMBL2029295, “Discovery and optimization of a potent and selective triazolopyridinone series of c-Met inhibitors” (Bioorg Med Chem Lett, 2012).
Values after ≈ are worked out from the molar mass of the structure shown.

How the values were obtained:
[1] = Solubility of the compound in 0.1N HCl; format: physicochemical
[2] = Solubility of the compound in phosphate buffered saline; format: physicochemical
[3] = Solubility of the compound in simulated intestinal fluid; format: physicochemical
[4] = Oral bioavailability in Sprague-Dawley rat at 2 mg/kg; format: ADME, organism-based; conditions: in vivo
[5] = Volume of distribution at steady state in Sprague-Dawley rat at 0.25 mg/kg, iv; format: ADME, organism-based; set-up: dose 0.25 mg/kg, route intravenous; conditions: in vivo, read-out: Vdss
[6] = Intrinsic clearance in mouse liver microsomes; format: ADME, Microsome; conditions: read-out: CLH
[7] = Clearance in Sprague-Dawley rat at 0.25 mg/kg, iv; format: ADME, organism-based; set-up: dose 0.25 mg/kg, route intravenous; conditions: in vivo
[8] = Plasma protein binding in mouse by equilibrium dialysis; format: ADME, cell-free; conditions: read-out: PPB (converted)
[9] = AUC (0 to infinity) in Sprague-Dawley rat at 2 mg/kg, po; format: ADME, organism-based; set-up: time infinity, dose 2 mg/kg, route oral; conditions: plasma
[10] = Plasma protein binding in rat by equilibrium dialysis; format: ADME, cell-free; conditions: read-out: PPB (converted)
[11] = Intrinsic clearance in human liver microsomes; format: ADME, Microsome; conditions: read-out: CLH
[12] = Half life in Sprague-Dawley rat at 0.25 mg/kg, iv; format: ADME, organism-based; set-up: dose 0.25 mg/kg, route intravenous; conditions: in vivo
[13] = Plasma protein binding in human by equilibrium dialysis; format: ADME, cell-free; conditions: read-out: PPB (converted)
[14] = Intrinsic clearance in rat liver microsomes; format: ADME, Microsome; conditions: read-out: CLH
Plasma = assay: Plasma concentration in BALB/c mouse at 10 mg/kg, po; format: ADME, organism-based; set-up: dose 10 mg/kg, route oral; conditions: in vivo
[15] = biological target: Platelet-derived growth factor receptor beta (Homo sapiens) (UniProt P09619); assay: Inhibition of PDGFRB assessed as remaining activity at 1 uM relative to control
[16] = biological target: Mast/stem cell growth factor receptor Kit (Homo sapiens) (UniProt P10721); assay: Inhibition of KIT assessed as remaining activity at 1 uM relative to control
[17] = biological target: Vascular endothelial growth factor receptor 2 (Homo sapiens) (UniProt P35968); assay: Inhibition of VEGFR2 assessed as remaining activity at 1 uM relative to control
Mus musculus = assay: Inhibition of HGF-induced phosphorylation of c-Met in BALB/c mice mouse liver at 10 mg/kg, po administered 1 to 24 hrs before HGF-induction measured after 5 mins; format: functional

Chain of Mast/stem cell growth factor receptor Kit (Homo sapiens) (P10721 whole entry): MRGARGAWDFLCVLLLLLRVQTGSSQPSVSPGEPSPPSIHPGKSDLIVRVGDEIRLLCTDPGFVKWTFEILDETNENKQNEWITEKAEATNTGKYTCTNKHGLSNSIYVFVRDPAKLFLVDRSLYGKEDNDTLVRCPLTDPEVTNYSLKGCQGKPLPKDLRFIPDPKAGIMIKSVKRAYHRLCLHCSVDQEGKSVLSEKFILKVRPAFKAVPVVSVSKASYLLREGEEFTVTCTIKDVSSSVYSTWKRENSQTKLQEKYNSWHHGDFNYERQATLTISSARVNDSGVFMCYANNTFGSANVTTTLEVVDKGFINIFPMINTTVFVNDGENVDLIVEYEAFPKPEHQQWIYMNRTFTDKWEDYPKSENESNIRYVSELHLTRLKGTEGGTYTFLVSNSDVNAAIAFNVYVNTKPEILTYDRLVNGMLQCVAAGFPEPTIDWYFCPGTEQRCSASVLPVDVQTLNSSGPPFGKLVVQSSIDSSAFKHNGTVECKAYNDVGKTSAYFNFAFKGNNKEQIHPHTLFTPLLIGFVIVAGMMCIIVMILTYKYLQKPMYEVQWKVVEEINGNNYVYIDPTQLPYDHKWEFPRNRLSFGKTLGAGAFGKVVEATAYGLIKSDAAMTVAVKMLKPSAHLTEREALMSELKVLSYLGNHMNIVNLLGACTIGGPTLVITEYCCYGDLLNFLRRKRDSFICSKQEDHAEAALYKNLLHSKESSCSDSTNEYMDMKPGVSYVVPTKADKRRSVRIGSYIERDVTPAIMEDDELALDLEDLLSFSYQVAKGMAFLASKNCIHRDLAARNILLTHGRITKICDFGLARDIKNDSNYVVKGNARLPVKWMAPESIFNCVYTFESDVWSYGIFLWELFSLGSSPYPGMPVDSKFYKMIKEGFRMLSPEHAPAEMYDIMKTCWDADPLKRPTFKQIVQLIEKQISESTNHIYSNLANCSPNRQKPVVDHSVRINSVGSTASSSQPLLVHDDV
Chain of Platelet-derived growth factor receptor beta (Homo sapiens) (P09619 whole entry): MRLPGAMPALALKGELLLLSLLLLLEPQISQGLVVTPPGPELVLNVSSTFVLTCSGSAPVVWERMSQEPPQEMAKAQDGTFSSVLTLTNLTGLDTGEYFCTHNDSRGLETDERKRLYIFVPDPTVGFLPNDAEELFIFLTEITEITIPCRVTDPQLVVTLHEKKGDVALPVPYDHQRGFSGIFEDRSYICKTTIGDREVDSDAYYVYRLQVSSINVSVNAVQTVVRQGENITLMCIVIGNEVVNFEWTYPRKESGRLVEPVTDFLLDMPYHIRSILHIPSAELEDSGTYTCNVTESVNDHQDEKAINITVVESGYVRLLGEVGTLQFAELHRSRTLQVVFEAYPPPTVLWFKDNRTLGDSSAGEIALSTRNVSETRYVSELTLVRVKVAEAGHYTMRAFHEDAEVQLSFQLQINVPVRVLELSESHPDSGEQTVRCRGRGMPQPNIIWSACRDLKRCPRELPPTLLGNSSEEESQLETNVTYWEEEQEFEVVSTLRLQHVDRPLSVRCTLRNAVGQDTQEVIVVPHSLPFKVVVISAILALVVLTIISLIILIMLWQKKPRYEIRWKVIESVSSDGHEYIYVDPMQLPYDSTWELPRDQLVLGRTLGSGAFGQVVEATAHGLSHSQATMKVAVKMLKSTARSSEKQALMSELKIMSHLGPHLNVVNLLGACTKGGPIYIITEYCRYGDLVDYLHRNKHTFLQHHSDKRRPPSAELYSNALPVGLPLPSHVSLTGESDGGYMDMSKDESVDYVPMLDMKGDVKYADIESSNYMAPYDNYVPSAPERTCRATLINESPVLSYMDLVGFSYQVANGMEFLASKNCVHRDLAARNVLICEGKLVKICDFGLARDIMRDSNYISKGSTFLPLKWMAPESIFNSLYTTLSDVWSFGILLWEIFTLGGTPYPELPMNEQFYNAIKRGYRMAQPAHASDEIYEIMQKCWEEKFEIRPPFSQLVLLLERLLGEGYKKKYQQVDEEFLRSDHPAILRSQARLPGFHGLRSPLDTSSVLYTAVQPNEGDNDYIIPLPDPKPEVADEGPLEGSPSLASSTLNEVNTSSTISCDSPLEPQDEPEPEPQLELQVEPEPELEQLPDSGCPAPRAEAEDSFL
Chain of Vascular endothelial growth factor receptor 2 (Homo sapiens) (P35968 whole entry): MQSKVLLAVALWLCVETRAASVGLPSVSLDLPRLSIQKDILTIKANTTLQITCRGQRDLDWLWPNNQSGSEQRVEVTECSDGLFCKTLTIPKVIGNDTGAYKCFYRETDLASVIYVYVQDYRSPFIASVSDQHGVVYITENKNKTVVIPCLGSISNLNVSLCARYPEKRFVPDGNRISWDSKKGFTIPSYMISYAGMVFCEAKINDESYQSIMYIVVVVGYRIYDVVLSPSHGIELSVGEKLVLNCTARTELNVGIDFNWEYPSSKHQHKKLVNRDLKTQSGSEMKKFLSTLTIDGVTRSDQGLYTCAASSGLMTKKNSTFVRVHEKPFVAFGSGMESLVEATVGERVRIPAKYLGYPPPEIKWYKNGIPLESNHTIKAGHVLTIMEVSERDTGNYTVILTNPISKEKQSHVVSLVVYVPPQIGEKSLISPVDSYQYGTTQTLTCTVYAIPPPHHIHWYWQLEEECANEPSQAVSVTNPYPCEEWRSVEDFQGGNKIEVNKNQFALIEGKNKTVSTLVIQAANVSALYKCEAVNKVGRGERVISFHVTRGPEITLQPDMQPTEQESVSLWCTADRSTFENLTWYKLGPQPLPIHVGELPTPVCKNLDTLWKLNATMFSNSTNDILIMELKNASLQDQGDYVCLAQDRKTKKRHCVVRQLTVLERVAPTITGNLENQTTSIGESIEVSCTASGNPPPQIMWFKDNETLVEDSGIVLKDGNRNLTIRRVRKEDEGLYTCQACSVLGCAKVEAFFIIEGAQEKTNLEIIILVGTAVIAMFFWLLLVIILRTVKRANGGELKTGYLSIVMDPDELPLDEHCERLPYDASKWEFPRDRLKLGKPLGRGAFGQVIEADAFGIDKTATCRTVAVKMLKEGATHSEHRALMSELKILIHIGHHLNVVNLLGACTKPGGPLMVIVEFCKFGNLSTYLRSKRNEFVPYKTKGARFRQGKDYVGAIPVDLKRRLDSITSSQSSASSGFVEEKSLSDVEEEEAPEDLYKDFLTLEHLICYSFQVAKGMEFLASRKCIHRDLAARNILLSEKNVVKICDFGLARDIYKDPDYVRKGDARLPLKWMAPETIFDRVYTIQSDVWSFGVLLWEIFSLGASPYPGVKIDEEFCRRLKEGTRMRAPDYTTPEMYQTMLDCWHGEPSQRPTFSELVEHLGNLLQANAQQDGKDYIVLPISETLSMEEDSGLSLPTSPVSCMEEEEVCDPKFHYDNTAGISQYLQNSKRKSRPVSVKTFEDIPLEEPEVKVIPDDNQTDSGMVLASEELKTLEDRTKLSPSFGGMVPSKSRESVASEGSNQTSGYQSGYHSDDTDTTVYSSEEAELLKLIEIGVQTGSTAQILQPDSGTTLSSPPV

solubility [1] [µg/mL]	solubility [2] [µg/mL]	solubility [3] [µg/mL]	bioavailability [4] [%]	Vd [5] [L/kg]	microsomal CLint [6] [µL/min/mg]	clearance [7] [mL/min/kg]	fraction unbound [8]	AUC(0-inf) [9] [ng·h/mL]	fraction unbound [10]	microsomal CLint [11] [µL/min/mg]	half-life [12] [h]	fraction unbound [13]	microsomal CLint [14] [µL/min/mg]	concentration (Plasma) [nM]	Activity [15] [%]	Activity [16] [%]	Activity [17] [%]	Compound	inhibition in vivo at 10 mg/kg (Mus musculus) [%]
128 (≈ 267 µM)	11.1 (≈ 23.2 µM)	37.7 (≈ 79 µM)	36	2.38	98	18.8	0.044	638	0.02	120	1.81	0.045	105					COCCOc1cnc2ccc([C@H](C)n3nnc4ccn(-c5ccc(F)c(F)c5)c(=O)c43)cc2c1	
≥ 200	≥ 200	60.4 (≈ 170 µM)																O=C1c2c(nnn2Cc2ccc3ncccc3c2)CCN1c1ccccc1	
13.7 (≈ 30.5 µM)	2.5 (≈ 5.57 µM)	9.8 (≈ 21.9 µM)																COCCOc1cnc2ccc(Cn3nnc4ccn(-c5cc(C)ns5)c(=O)c43)cc2c1	
37 (≈ 80 µM)	8.7 (≈ 18.8 µM)	39.7 (≈ 85.8 µM)	43	2.53	68	9.32	0.027	1560	0.018	84	3.4	0.012	89	< 200	10	26	34	COCCOc1cnc2ccc([C@H](C)n3nnc4ccn(-c5cc(C)ns5)c(=O)c43)cc2c1	89

Further lines, the compound ahead of its results:

Compound	solubility [1] [µg/mL]	solubility [2] [µg/mL]	solubility [3] [µg/mL]	bioavailability [4] [%]	Vd [5] [L/kg]	microsomal CLint [6] [µL/min/mg]	clearance [7] [mL/min/kg]	fraction unbound [8]	AUC(0-inf) [9] [ng·h/mL]	fraction unbound [10]	microsomal CLint [11] [µL/min/mg]	half-life [12] [h]	fraction unbound [13]	microsomal CLint [14] [µL/min/mg]	concentration (Plasma) [nM]	Activity [15] [%]	Activity [16] [%]	Activity [17] [%]	inhibition in vivo at 10 mg/kg (Mus musculus) [%]
Cc1cc(-n2ccc3nnn(Cc4ccc5ncccc5c4)c3c2=O)sn1	80.1 (≈ 214 µM)	< 1	4.8 (≈ 12.8 µM)																
Cc1cc(-n2ccc3nnn([C@@H](C)c4ccc5ncccc5c4)c3c2=O)sn1	≥ 200	4.5 (≈ 11.6 µM)	22.4 (≈ 57.7 µM)																
Cc1cc(N2CCc3nnn(Cc4ccc5ncccc5c4)c3C2=O)sn1	43.2 (≈ 115 µM)	2.2 (≈ 5.84 µM)	< 1																
